These results are taken from patent publication US11702404B2, “GLP-1R modulating compounds” (priority 2019, dated 2023).

A value given as a limit tells only on which side of the number the result lay.

A word on the EC50: it is the concentration that produces a half-maximal response.

Test system in the first data set: not listed separately
Description: Microsomal stability, human liver microsomes (predicted hepatic clearance). Conditions: predicted from in vitro microsomal stability data.
`N#Cc1ccc(COc2cccc(-c3ccc(Cc4nc5ccc(C(=O)O)cc5n4CC4CCO4)c(F)c3)n2)c(F)c1` (single isomer, unassigned) [Example 67, 2-(4-(6-((4-Cyano-2-fluorobenzyl)oxy)pyridin-2-yl)-2-fluorobenzyl)-1-(oxetan-2-ylmethyl)-1H-benzo[d]imidazole-6-carboxylic acid]: the “Predicted Hepatic Clearance (Pred. Cl.)” value is given as 0.31 L/h/kg.
Same read-out and setting: the figure for `N#Cc1ccc(COc2cccc(-c3ccc(Cc4nc5ccc(C(=O)O)cc5n4CC4CCO4)c(F)c3)n2)c(F)c1` (single isomer, unassigned) [Example 68, 2-(4-(6-((4-Cyano-2-fluorobenzyl)oxy)pyridin-2-yl)-2-fluorobenzyl)-1-(oxetan-2-ylmethyl)-1H-benzo[d]imidazole-6-carboxylic acid] is below 0.11 L/h/kg; for `COCCn1c(C(C)c2ccc(-c3cccc(OCc4ccc(C#N)cc4F)n3)cc2)nc2ccc(C(=O)O)cc21` (single isomer, unassigned) [Example 439, 2-(1-(4-(6-((4-cyano-2-fluorobenzyl)oxy)pyridin-2-yl)phenyl)ethyl)-1-(2-methoxyethyl)-1H-benzo[d]imidazole-6-carboxylic acid] it is 0.36 L/h/kg.
Same read-out and setting: the same measure for `N#Cc1ccc(COc2cccc(-c3ccc(Cc4nc5ccc(C(=O)O)cc5n4CC4CCO4)c(F)c3)n2)c(F)c1` (centres unmarked) [Example 15, 2-(4-(6-((4-cyano-2-fluorobenzyl)oxy)pyridin-2-yl)-2-fluorobenzyl)-1-(oxetan-2-ylmethyl)-1H-benzo[d]imidazole-6-carboxylic acid]: 0.2 L/h/kg; for `COCCn1c(Cn2cc(-c3csc(OCc4ccc(C#N)cc4F)n3)cn2)nc2ccc(C(=O)O)cc21` [Example 78, 2-((4-(2-((4-cyano-2-fluorobenzyl)oxy)thiazol-4-yl)-1H-pyrazol-1-yl)methyl)-1-(2-methoxyethyl)-1H-benzo[d]imidazole-6-carboxylic acid]: 0.42 L/h/kg; for `COCCn1c(Cc2ccc(-c3cc(-c4cnn(C)c4)cc(OCc4ccc(C#N)cc4F)n3)cc2F)nc2ccc(C(=O)O)cc21` [Example 99, 2-(4-(6-((4-cyano-2-fluorobenzyl)oxy)-4-(1-methyl-1H-pyrazol-4-yl)pyridin-2-yl)-2-fluorobenzyl)-1-(2-methoxyethyl)-1H-benzo[d]imidazole-6-carboxylic acid]: 0.14 L/h/kg.

A further data set deals with GLP-1R (Homo sapiens, UniProt P43220). Description: GLP-1R activation: cAMP increase in CHO cells stably expressing GLP-1R. Format: cell-based. The conditions noted are these: cAMP increase, CHO cells stably expressing GLP-1R, 10 point dose response, 30 minutes incubation; read-out: EC50.
Sequence of GLP-1R (P43220 24-463): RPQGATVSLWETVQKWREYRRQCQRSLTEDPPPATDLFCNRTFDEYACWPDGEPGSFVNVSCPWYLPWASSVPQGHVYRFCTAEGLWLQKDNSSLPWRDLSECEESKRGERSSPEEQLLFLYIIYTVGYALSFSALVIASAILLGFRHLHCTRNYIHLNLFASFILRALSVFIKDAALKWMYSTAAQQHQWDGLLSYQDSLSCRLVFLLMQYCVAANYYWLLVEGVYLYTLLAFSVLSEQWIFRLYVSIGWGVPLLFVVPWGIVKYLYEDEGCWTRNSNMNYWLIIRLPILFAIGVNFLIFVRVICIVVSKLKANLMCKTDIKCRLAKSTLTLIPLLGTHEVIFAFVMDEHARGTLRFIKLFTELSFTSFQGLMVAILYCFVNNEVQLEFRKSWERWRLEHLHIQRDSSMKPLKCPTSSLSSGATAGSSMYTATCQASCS
For `CC(C)(CF)Cn1c(Cc2ccc(-c3cccc(OCc4ccc(C#N)cc4F)n3)cc2F)nc2ccc(C(=O)O)cc21` [Example 11, 2-(4-(6-((4-cyano-2-fluorobenzyl)oxy)pyridin-2-yl)-2-fluorobenzyl)-1-(3-fluoro-2,2-dimethylpropyl)-1H-benzo[d]imidazole-6-carboxylic acid], the EC50 came to 2.7 nM.
Take `CC(C)(Cn1c(Cc2ccc(-c3cccc(OCc4ccc(C#N)cc4F)n3)cc2F)nc2ccc(C(=O)O)cc21)C(F)F` [Example 12, 2-(4-(6-((4-cyano-2-fluorobenzyl)oxy)pyridin-2-yl)-2-fluorobenzyl)-1-(3,3-difluoro-2,2-dimethylpropyl)-1H-benzo[d]imidazole-6-carboxylic acid]: the 50% effective concentration (EC50) came out at 1.77 nM.
With `COCCn1c(Cc2ncc(-c3cccc(OCc4ccc(C#N)cc4F)n3)cn2)nc2ccc(C(=O)O)cc21` [Example 58, 2-((5-(6-((4-cyano-2-fluorobenzyl)oxy)pyridin-2-yl)pyrimidin-2-yl)methyl)-1-(2-methoxyethyl)-1H-benzo[d]imidazole-6-carboxylic acid], the EC50 worked out at 28.8 nM.
For `COCCn1c(Cc2ccc(-c3cccc(OCc4ccc(C#N)c5c4OCCC5)n3)cc2F)nc2ccc(C(=O)O)cc21` [Example 144, 2-(4-(6-((5-cyanochroman-8-yl)methoxy)pyridin-2-yl)-2-fluorobenzyl)-1-(2-methoxyethyl)-1H-benzo[d]imidazole-6-carboxylic acid], the half-maximal effective concentration (EC50) was found to be 20.7 nM.
As for `COCCn1c(Cc2ccc(-c3cccc(OCc4cccc5c4OCCN5C)n3)cc2F)nc2ccc(C(=O)O)cc21` [Example 149, 2-(2-fluoro-4-(6-((4-methyl-3,4-dihydro-2H-benzo[b][1,4]oxazin-8-yl)methoxy)pyridin-2-yl)benzyl)-1-(2-methoxyethyl)-1H-benzo[d]imidazole-6-carboxylic acid], the EC50 came out at 2040 nM.
For `COCCn1c(Cc2ccc(-c3cccc(OCc4ccc(C(F)F)cc4F)n3)cc2F)nc2ccc(C(=O)O)cc21` [Example 150, 2-(4-(6-((4-(difluoromethyl)-2-fluorobenzyl)oxy)pyridin-2-yl)-2-fluorobenzyl)-1-(2-methoxyethyl)-1H-benzo[d]imidazole-6-carboxylic acid], the half-maximal effective concentration (EC50) is 3.35 nM.
Still for that read-out and setting: the same measure for `COCCn1c(Cc2ccc(-c3cccc(OCc4ccc(Br)c5nsnc45)n3)cc2F)nc2ccc(C(=O)O)cc21` [Example 151, 2-(4-(6-((7-bromobenzo[c][1,2,5]thiadiazol-4-yl)methoxy)pyridin-2-yl)-2-fluorobenzyl)-1-(2-methoxyethyl)-1H-benzo[d]imidazole-6-carboxylic acid]: 7.93 nM.
As for `COCCn1c(Cc2ccc(-c3cccnc3OCc3ccccc3)cc2F)nc2ccc(C(=O)O)cc21` [Example 183, 2-(4-(2-(benzyloxy)pyridin-3-yl)-2-fluorobenzyl)-1-(2-methoxyethyl)-1H-benzo[d]imidazole-carboxylic acid], the concentration for a half-maximal effect (EC50) is 3960 nM.
For `COCCn1c(Cc2ccc(-c3cccc(OCC(=O)c4ccc(OC)cc4)n3)cc2F)nc2ccc(C(=O)O)cc21` [Example 215, 2-(2-fluoro-4-(6-(2-(4-methoxyphenyl)-2-oxoethoxy)pyridin-2-yl)benzyl)-1-(2-methoxyethyl)-1H-benzo[d]imidazole-6-carboxylic acid], the 50% effective concentration (EC50) is 62.7 nM.
For `COCCn1c(Cc2ccc(-c3cccc(OCc4cnc(Cl)nc4OC)n3)cc2F)nc2ccc(C(=O)O)cc21` [Example 227, 2-(4-(6-((2-chloro-4-methoxypyrimidin-5-yl)methoxy)pyridin-2-yl)-2-fluorobenzyl)-1-(2-methoxyethyl)-1H-benzo[d]imidazole-6-carboxylic acid], the concentration giving a half-maximal response (EC50) came to 14.3 nM.
Take `COc1cc(Cl)ccc1COc1nccc(-c2cc(F)c(Cc3nc4ccc(C(=O)O)cc4n3CC3(CC#N)CC3)cc2F)n1` [Example 446, 2-(4-(2-((4-chloro-2-methoxybenzyl)oxy)pyrimidin-4-yl)-2,5-difluorobenzyl)-1-((1-(cyanomethyl)cyclopropyl)methyl)-1H-benzo[d]imidazole-6-carboxylic acid]: the half-maximal effective concentration (EC50) was determined as 0.15 nM.
For `NC(=O)c1ccc(COc2cc(-c3ccc(Cc4nc5ccc(C(=O)O)cc5[nH]4)c(F)c3)ccc2F)c(F)c1` [Example 469, 2-((3′-((4-carbamoyl-2-fluorobenzyl)oxy)-3,4′-difluoro-[1,1′-biphenyl]-4-yl)methyl)-1H-benzo[d]imidazole-6-carboxylic acid], the EC50 is at least 1000 nM.
As to `COCCn1c(Cc2cc(F)c(-c3nc(OCc4ccc(C#N)cc4F)c(F)cc3F)cc2F)nc2ccc(C(=O)O)cc21` [Example 538, 2-(4-(6-((4-cyano-2-fluorobenzyl)oxy)-3,5-difluoropyridin-2-yl)-2,5-difluorobenzyl)-1-(2-methoxyethyl)-1H-benzo[d]imidazole-6-carboxylic], the EC50 was 4250 nM.
`CO[C@H]1C[C@@H](n2c(Cc3cc(F)c(-c4cccc(OCc5ccc(C#N)cc5F)n4)cc3F)nc3ccc(C(=O)O)cc32)C1` [Example 566, 2-(4-(6-((4-cyano-2-fluorobenzyl)oxy)pyridin-2-yl)-2,5-difluorobenzyl)-1-((1s,3s)-3-methoxycyclobutyl)-1H-benzo[d]imidazole-6-carboxylic acid]: the 50% effective concentration (EC50) is 255 nM.
Consider `N#Cc1ccc(COc2cccc(-c3cc(F)c(Cc4nc5c(F)cc(C(=O)O)cc5n4Cc4ncco4)cc3F)n2)c(F)c1` [Example 584, 2-(4-(6-((4-cyano-2-fluorobenzyl)oxy)pyridin-2-yl)-2,5-difluorobenzyl)-4-fluoro-1-(oxazol-2-ylmethyl)-1H-benzo[d]imidazole-6-carboxylic acid], for which the EC50 stood at 0.23 nM.
The same measure, in the same setting: the figure for `COCCn1c(Cc2ccc(-c3cccc(OCc4nnc(Cl)s4)n3)cc2F)nc2ccc(C(=O)O)cc21` [Example 590, 2-(4-(6-((5-chloro-1,3,4-thiadiazol-2-yl)methoxy)pyridin-2-yl)-2-fluorobenzyl)-1-(2-methoxyethyl)-1H-benzo[d]imidazole-6-carboxylic acid] is 3190 nM; for `N#Cc1ccc(COc2nccc(-c3ccc(Cc4nc5c(F)cc(C(=O)O)cc5n4Cc4ncco4)cc3F)n2)c(F)c1` [Example 618] it is 1.48 nM.
Take `N#Cc1ccc(COc2cccc(-c3cc(F)c(Cc4nc5ccc(C(=O)O)cc5n4CC4(CO)CC4)cc3F)n2)c(F)c1` [Example 637]: the EC50 is 1.18 nM.
Turning to `CC12COC(Cn3c(Cc4cc(F)c(-c5cccc(OCc6ccc(C#N)cc6F)n5)cc4F)nc4ccc(C(=O)O)cc43)(C1)C2` [Example 741], the EC50 stood at 22.6 nM.
Consider `O=C(O)c1ccc2nc(Cc3cc(F)c(-c4nc(OCc5ccc(C(F)F)cc5F)ccc4F)cc3F)n(C[C@@H]3CCO3)c2c1` [Example 787], for which the EC50 came to 0.08 nM.
For `COCCn1c(Cc2cc(F)c(-c3cccc(OCc4ccc(C#N)cc4F)n3)c(F)c2F)nc2ccc(C(=O)O)cc21` [Example 856, 2-(4-(6-((4-cyano-2-fluorobenzyl)oxy)pyridin-2-yl)-2,3,5-trifluorobenzyl)-1-(2-methoxyethyl)-1H-benzo[d]imidazole-6-carboxylic acid], the EC50 was determined as 4.55 nM.
As to `COCCn1c(Cc2cc(F)c(-c3cccc(OCc4ccc(C(F)(F)F)s4)n3)cc2F)nc2ccc(C(=O)O)cc21` [Example 864], the EC50 turned out to be 3.71 nM.
With `COC1(Cn2c(Cc3cc(F)c(-c4cccc(OCc5ccc(C#N)cc5F)n4)cc3F)nc3ccc(C(=O)O)cc32)CN(C(=O)C2CC2)C1` [Example 889, 2-(4-(6-((4-cyano-2-fluorobenzyl)oxy)pyridin-2-yl)-2,5-difluorobenzyl)-1-((1-(cyclopropanecarbonyl)-3-methoxyazetidin-3-yl)methyl)-1H-benzo[d]imidazole-6-carboxylic acid], the 50% effective concentration (EC50) worked out at 69.5 nM.
